Our source for the GI50 and TGI values is PubChem BioAssay (NCI).

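Exposure lasted 48 hours, with cells grown in 96-well plates and compounds tested at five concentrations. GI50 is the concentration that inhibits growth by half. TGI marks complete inhibition of growth.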

Test systems include DU-145 prostate; NCI-H460 lung; RPMI-8226 leukemia; PC-3 prostate; SNB-75 CNS; M14 melanoma; NCI-H23 lung; KM12 colon; MALME-3M melanoma; SK-OV-3 ovarian; HCT-116 colon.
Assay in all cases: NCI anticancer screen, dose series, 48 h

As to `CC(=O)OC1COC(n2c(N)c(C#N)c(C)c(C#N)c2=S)C(OC(C)=O)C1OC(C)=O` (stereo unspecified), in the test on DU-145 prostate, the GI50 is > 100 µM. Further, the TGI in the test on DU-145 prostate, with NCI-H460 lung, with RPMI-8226 leukemia, with PC-3 prostate, with SNB-75 CNS and in the test on M14 melanoma was > 100 µM throughout. Moreover, the TGI with NCI-H23 lung, in the test on KM12 colon, in the test on MALME-3M melanoma and with SK-OV-3 ovarian was > 100 µM throughout.

For the compound `COC(=O)C1(O)c2ccccc2N=C2C(=O)c3ccccc3N21` (stereo unspecified), the TGI with DU-145 prostate, with NCI-H460 lung, in the test with RPMI-8226 leukemia, in the test on PC-3 prostate, in the test with SNB-75 CNS and in the test on NCI-H23 lung was > 100 µM in each case. The TGI in the test with KM12 colon, in the test with HCT-116 colon and with MALME-3M melanoma was > 100 µM in each case.

With `CCN(CC)CCS(=O)c1c2cc(OC)ccc2nc2ccc(OC)cc12` (stereo unspecified), the TGI in the test on DU-145 prostate was 4.04 µM; in the test with NCI-H460 lung, > 82.2 µM; in the test on RPMI-8226 leukemia, 7.11 µM; in the test on PC-3 prostate, 26.9 µM; in the test with SNB-75 CNS, 36 µM; in the test with M14 melanoma, 26.3 µM. The TGI with NCI-H23 lung was 41.3 µM; in the test on KM12 colon it was > 57.5 µM; in the test with HCT-116 colon, 4.55 µM; in the test on MALME-3M melanoma, 2.51 µM; in the test on SK-OV-3 ovarian, 40.9 µM.

As to `Cc1cc2c(s1)C(=O)c1sccc1C2=O`, the TGI was 3.23 µM with DU-145 prostate; 3.23 µM with NCI-H460 lung; > 25.5 µM in the test with RPMI-8226 leukemia; 4.93 µM with PC-3 prostate; 1.18 µM with SNB-75 CNS; 0.356 µM in the test on M14 melanoma. For the same compound, the TGI in the test on NCI-H23 lung is 0.36 µM; in the test with KM12 colon it was 3 µM; in the test on HCT-116 colon it was 2.46 µM; in the test on MALME-3M melanoma it was 0.311 µM; in the test with SK-OV-3 ovarian, 4.47 µM.

Regarding `C[C@]12CC(c3ccccc3O1)C(C(=O)NC13CC4CC(CC(C4)C1)C3)C(=O)N2` (stereo partly specified), the TGI was > 100 µM in the test on DU-145 prostate; > 100 µM in the test on NCI-H460 lung; 31.3 µM in the test on RPMI-8226 leukemia; > 100 µM with PC-3 prostate; 74 µM in the test with SNB-75 CNS; 35.9 µM in the test on M14 melanoma. For the same compound, the TGI with NCI-H23 lung is 61.9 µM; in the test on KM12 colon, > 100 µM; with HCT-116 colon it was 41 µM; in the test with MALME-3M melanoma, > 100 µM; with SK-OV-3 ovarian it was > 100 µM.

As to `CNC(=O)c1n[nH][nH]c1=O`, the TGI in the test on DU-145 prostate, in the test with RPMI-8226 leukemia, in the test with PC-3 prostate, with SNB-75 CNS, in the test on M14 melanoma and with NCI-H23 lung was > 100 µM in each case. The TGI in the test on KM12 colon, in the test with HCT-116 colon, in the test on MALME-3M melanoma and in the test on SK-OV-3 ovarian was > 100 µM in each case.

In the case of `O=S1(=O)CCN(Cc2ccccc2)/C1=N\S(=O)(=O)c1ccc(Cl)cc1`, the TGI was determined as 35.3 µM in the test on DU-145 prostate; 48 µM with NCI-H460 lung; 79 µM in the test on RPMI-8226 leukemia; 36.7 µM in the test with PC-3 prostate; 50.9 µM in the test on SNB-75 CNS; 32.9 µM in the test on M14 melanoma. Further, the TGI in the test on NCI-H23 lung is 35.3 µM; in the test on KM12 colon it was > 100 µM; in the test on HCT-116 colon, 33 µM; in the test on SK-OV-3 ovarian it was > 100 µM.

For the compound `CC1(C)OCC(C2OC(N3O[C@H](CI)C[C@@H]3c3ccccc3)C3OC(C)(C)OC23)O1` (stereo partly specified), the TGI with DU-145 prostate, in the test on NCI-H460 lung, with RPMI-8226 leukemia, in the test on PC-3 prostate, in the test on SNB-75 CNS and in the test on M14 melanoma was > 100 µM each time. Besides, the TGI in the test with NCI-H23 lung, with KM12 colon, in the test with HCT-116 colon, in the test with MALME-3M melanoma and with SK-OV-3 ovarian was > 100 µM each time.

Take `COc1ccc(CN(CCc2c[nH]c3ccccc23)Cc2ccc(OC)cc2)cc1`: the TGI in the test on DU-145 prostate was 32.9 µM; in the test on NCI-H460 lung, > 61.7 µM; in the test on RPMI-8226 leukemia, > 41.9 µM; with PC-3 prostate, 13 µM; in the test with SNB-75 CNS, 15.1 µM; in the test with NCI-H23 lung, 10.5 µM. For the same compound, the TGI in the test on KM12 colon was 13.9 µM; with MALME-3M melanoma, 8.82 µM; in the test with SK-OV-3 ovarian it was 17.9 µM.

`CCCCCc1c2nc(c(CCCCC)c3ccc([nH]3)c(CCCCC)c3ccc([nH]3)c(CCCCC)c3nc1C=C3)C=C2`: the TGI in the test with DU-145 prostate, in the test with NCI-H460 lung, in the test on RPMI-8226 leukemia, with PC-3 prostate, in the test with SNB-75 CNS and in the test with M14 melanoma was > 100 µM throughout. Further, the TGI in the test with NCI-H23 lung, in the test with KM12 colon, in the test on HCT-116 colon, in the test with MALME-3M melanoma and in the test on SK-OV-3 ovarian was > 100 µM in each case.

As for `CC(C)(C)N1NC1C1NN1C(C)(C)C` (stereo unspecified), the TGI in the test with DU-145 prostate, in the test on NCI-H460 lung, in the test on RPMI-8226 leukemia, in the test on PC-3 prostate, with SNB-75 CNS and with M14 melanoma was > 100 µM each time. Also, the TGI in the test with NCI-H23 lung, in the test on KM12 colon, in the test on HCT-116 colon, with MALME-3M melanoma and in the test on SK-OV-3 ovarian was > 100 µM each time.

Regarding `CC(=O)CCC[C@@H](C)[C@@H]1O[C@H]([C@@]2(C)CCC(=O)O2)C[C@H]2C(CSc3ccccc3)C(=O)O[C@@H]12` (stereo partly specified), the TGI is 29.1 µM in the test with DU-145 prostate; > 57.5 µM with NCI-H460 lung; 52.1 µM with RPMI-8226 leukemia; 47.6 µM in the test on PC-3 prostate; > 59.4 µM with SNB-75 CNS; 26.8 µM with M14 melanoma. Besides, the TGI was 49.3 µM with NCI-H23 lung; 28.9 µM in the test with KM12 colon; 31.2 µM in the test on HCT-116 colon; > 42.5 µM with MALME-3M melanoma; > 100 µM in the test with SK-OV-3 ovarian.

Regarding `CCOC(=O)c1nc2ccc(C(F)(F)F)cc2nc1Oc1ccc(F)cc1`, the TGI in the test on DU-145 prostate, with NCI-H460 lung, with RPMI-8226 leukemia, with PC-3 prostate, in the test with SNB-75 CNS and with M14 melanoma was > 100 µM in each case. In addition, the TGI with NCI-H23 lung, in the test on KM12 colon, in the test on HCT-116 colon and in the test with SK-OV-3 ovarian was > 100 µM in each case.
